The results in this text go back to article PMC9156754, “Functional and phylogenetic analysis of TetX variants to design a new classification system” (Communications Biology, 2022).

What is called Km is the concentration of substrate that gives half-maximal velocity. One may read the kcat as the number of substrate molecules converted per active site and unit of time at saturation. The kcat/Km is the second-order rate constant that governs catalysis at low substrate concentration.

The subject of data set [1] is CN(C)c1cc(NC(=O)CNC(C)(C)C)c(O)c2c1C[C@H]1C[C@H]3[C@H](N(C)C)C(=O)C(C(N)=O)=C(O)[C@@]3(O)C(=O)C1=C2O. Description: purified protein. Particulars: 0.1 M TAPS pH 8.5, 5 mM MgCl2, 500 µM NADPH, ambient temperature. The class given is biochemical, Escherichia coli.
Another data set concerns T1, E. coli 25922.
T1 construct: ATCC 25922
The experiment in a line: microbe, parasite or virus in culture. As to conditions: Escherichia coli. On the set-up: broth microdilution MIC, growth of E. coli, CLSI guidelines. As to the method: (§1) The MICs of three antibiotics (tetracycline, minocycline, and tigecycline) for strains were determined using the microbroth dilution method and the results were interpreted according to the CLSI guidelines. For tigecycline, the breakpoint was interpreted according to the FDA criteria (susceptible, ≤2 mg/L; intermediate, 4 mg/L; resistant, ≥8 mg/L)[9]. E. coli strain ATCC 25922 was used as a quality control. The tet(X2) (WP_063856436.1), tet(X3) (WP024160783), and tet(X4) (WP094309310) genes were amplified from dairy cows’ clinical isolates[25] by PCR with primers listed in Supplementary Table 1. Then these genes were constructed into pBAD-18Kan vector and IPTG-inducible pET28b vector, respectively. The recombinant plasmids pBAD-18-tet(X2), pBAD-18-tet(X3) and pBAD-18-tet(X4) were transformed into E. coli BW25113 and followed by antimicrobial susceptibility tests. In addition, the recombinant plasmids pET28-6×His-tet(X2), pET28-6×His-tet(X3) and pET28-6×His-tet(X4) were transformed into E. coli strain BL21(DE3) for protein purification. Point mutations were introduced into the tet(X2) gene, tet(X3) gene and tet(X4) by using the QuickChange (Stratagene) commercial kit, following the manufacturer’s instructions, and confirmed by sequencing. Primers used in mutagenesis are also listed in Supplementary Table 1.

Data set [2] relates to T2, Escherichia coli Vector control.
T2 construct: BW25113 empty pBAD18-Kan vector
Description: microbe, parasite or virus in culture. As to conditions: empty pBAD18 vector. More on the design: broth microdilution MIC, growth of E. coli, CLSI guidelines. As to the method: as §1

Values after ≈ are worked out from the molar mass of the structure shown. Like-named read-outs stand apart in the source and are kept apart here.

Tet(X4) (Escherichia coli): in data set [1], the Michaelis constant (Km) turned out to be 1.73 ± 0.09 µM, the kcat was determined as 2 ± 0.02 s⁻¹ and the kcat/Km was determined as 1.16e+06 M⁻¹ s⁻¹.
As to `CN(C)c1ccc(O)c2c1C[C@H]1C[C@H]3[C@H](N(C)C)C(O)=C(C(N)=O)C(=O)[C@@]3(O)C(O)=C1C2=O` [minocycline], the MIC in the data set with E. coli 25922 (read-out: MIC (mg/L) / MIN) stood at 0.25 mg/L (≈ 0.546 µM); in data set [2] (read-out: MIC (mg/L) / MIN), 1 mg/L (≈ 2.19 µM).
As to `CN(C)[C@@H]1C(O)=C(C(N)=O)C(=O)[C@@]2(O)C(O)=C3C(=O)c4c(O)cccc4[C@@](C)(O)[C@H]3C[C@@H]12` [tetracycline], the values for the MIC (in the data set with E. coli 25922 (read-out: MIC (mg/L) / TET^a); in data set [2] (read-out: MIC (mg/L) / TET^a)) were 1 mg/L (≈ 2.25 µM) and 2 mg/L (≈ 4.5 µM), respectively.
As for `CN(C)c1cc(NC(=O)CNC(C)(C)C)c(O)c2c1C[C@H]1C[C@H]3[C@H](N(C)C)C(=O)C(C(N)=O)=C(O)[C@@]3(O)C(=O)C1=C2O` [tigecycline], the results for the MIC (in the data set with E. coli 25922 (read-out: MIC (mg/L) / TGC); in data set [2] (read-out: MIC (mg/L) / TGC)) were 0.25 mg/L (≈ 0.427 µM) and 0.5 mg/L (≈ 0.854 µM), respectively.
